# In patent publication US20220281848A1, “PYRAZOLE-SUBSTITUTED PYRROLIDINONES AS HERBICIDES” (FMC Corporation, priority 2019, published 2022):
# Columns and labels:
# plants = test: Test D post-emergence, other plants of Tables D2 and D4; format: in vivo; details: for damage to plant (100=total damage to plant; 0=no damage to plant), ABUTH / damage to plant (100=total damage to plant; 0=no damage to plant), AMARE / damage to plant (100=total damage to plant; 0=no damage to plant), BIDPI / damage to plant (100=total damage to plant; 0=no damage to plant), BRAPL / damage to plant (100=total damage to plant; 0=no damage to plant), CYPES / damage to plant (100=total damage to plant; 0=no damage to plant), DIGSA / damage to plant (100=total damage to plant; 0=no damage to plant), ECHCG / damage to plant (100=total damage to plant; 0=no damage to plant), ELEIN / damage to plant (100=total damage to plant; 0=no damage to plant), EPHHL / damage to plant (100=total damage to plant; 0=no damage to plant), GLXMA / damage to plant (100=total damage to plant; 0=no damage to plant), IPOHE / damage to plant (100=total damage to plant; 0=no damage to plant), ORYSA / damage to plant (100=total damage to plant; 0=no damage to plant), PANMI / damage to plant (100=total damage to plant; 0=no damage to plant), SETFA / damage to plant (100=total damage to plant; 0=no damage to plant), SORVU: post-emergence
# Method in brief: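 Damage was rated visually from 0 (none) to 100 (total), at 20 DAA for pre-emergence and 15 d for post-emergence. Plants grew from safener-treated seed in a glasshouse at 24/18° C. or 20/16° C. day/night, 65% humidity, watered twice daily.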
# [1] = tested on: velvetleaf (Abutilon theophrasti, ABUTH); test: Test A post-emergence, velvetleaf; format: in vivo; details: after 13 d
# Method in brief: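 Plants were grown 8 d in a glasshouse (24/16° C day/night, 14 h light, 65% humidity), then sprayed post-emergence at 15.625, 62.5 or 250 g/ha in acetone/water (50:50) with 0.5% Tween 20. Damage was scored visually after 13 d (0 = none, 100 = total).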
structure (smiles),measurement,setting,value
CN1CC(c2cc(C(F)(F)F)n(C)n2)C(C(=O)Nc2ccc(F)c(F)c2F)C1=O (racemic) [Compound 17],STEME damage rating (100=total damage to plant; 0=no damage to plant),"plants; STEME, ""Cereals"" Postemergent, Rates 500, evaluated after 15 d",30
same,VERPE damage rating (100=total damage to plant; 0=no damage to plant),"plants; ""Cereals"" Postemergent, Rates 130, evaluated after 15 d",30
same,VERPE damage rating (100=total damage to plant; 0=no damage to plant),"plants; ""Cereals"" Postemergent, Rates 250, evaluated after 15 d",70
same,VERPE damage rating (100=total damage to plant; 0=no damage to plant),"plants; ""Cereals"" Postemergent, Rates 500, evaluated after 15 d",60
same,"damage to plant (100=total damage to plant; 0=no damage to plant), ABUTH","plants; rate 130, evaluated after 15 d",0
same,"damage to plant (100=total damage to plant; 0=no damage to plant), ABUTH","plants; rate 250, evaluated after 15 d",0
same,"damage to plant (100=total damage to plant; 0=no damage to plant), ABUTH","plants; rate 500, evaluated after 15 d",20
same,"damage to plant (100=total damage to plant; 0=no damage to plant), AMARE","plants; rate 250, evaluated after 15 d",20
same,"damage to plant (100=total damage to plant; 0=no damage to plant), AMARE","plants; rate 500, evaluated after 15 d",40
same,"damage to plant (100=total damage to plant; 0=no damage to plant), BIDPI","plants; rate 130, evaluated after 15 d",0
same,"damage to plant (100=total damage to plant; 0=no damage to plant), BIDPI","plants; rate 250, evaluated after 15 d",0
same,"damage to plant (100=total damage to plant; 0=no damage to plant), BIDPI","plants; rate 500, evaluated after 15 d",0
same,"damage to plant (100=total damage to plant; 0=no damage to plant), BRAPL","plants; rate 130, evaluated after 15 d",70
same,"damage to plant (100=total damage to plant; 0=no damage to plant), BRAPL","plants; rate 250, evaluated after 15 d",80
same,"damage to plant (100=total damage to plant; 0=no damage to plant), BRAPL","plants; rate 500, evaluated after 15 d",80
same,"damage to plant (100=total damage to plant; 0=no damage to plant), CYPES","plants; rate 130, evaluated after 15 d",0
same,"damage to plant (100=total damage to plant; 0=no damage to plant), CYPES","plants; rate 250, evaluated after 15 d",0
same,"damage to plant (100=total damage to plant; 0=no damage to plant), CYPES","plants; rate 500, evaluated after 15 d",10
same,"damage to plant (100=total damage to plant; 0=no damage to plant), DIGSA","plants; rate 130, evaluated after 15 d",70
same,"damage to plant (100=total damage to plant; 0=no damage to plant), DIGSA","plants; rate 250, evaluated after 15 d",80
same,"damage to plant (100=total damage to plant; 0=no damage to plant), DIGSA","plants; rate 500, evaluated after 15 d",80
same,"damage to plant (100=total damage to plant; 0=no damage to plant), ECHCG","plants; rate 130, evaluated after 15 d",80
same,"damage to plant (100=total damage to plant; 0=no damage to plant), ECHCG","plants; rate 250, evaluated after 15 d",80
same,"damage to plant (100=total damage to plant; 0=no damage to plant), ECHCG","plants; rate 500, evaluated after 15 d",80
same,"damage to plant (100=total damage to plant; 0=no damage to plant), ELEIN","plants; rate 130, evaluated after 15 d",0
same,"damage to plant (100=total damage to plant; 0=no damage to plant), ELEIN","plants; rate 250, evaluated after 15 d",10
same,"damage to plant (100=total damage to plant; 0=no damage to plant), ELEIN","plants; rate 500, evaluated after 15 d",20
same,"damage to plant (100=total damage to plant; 0=no damage to plant), EPHHL","plants; rate 130, evaluated after 15 d",10
same,"damage to plant (100=total damage to plant; 0=no damage to plant), EPHHL","plants; rate 250, evaluated after 15 d",20
same,"damage to plant (100=total damage to plant; 0=no damage to plant), EPHHL","plants; rate 500, evaluated after 15 d",30
same,"damage to plant (100=total damage to plant; 0=no damage to plant), GLXMA","plants; rate 130, evaluated after 15 d",0
same,"damage to plant (100=total damage to plant; 0=no damage to plant), GLXMA","plants; rate 250, evaluated after 15 d",0
same,"damage to plant (100=total damage to plant; 0=no damage to plant), GLXMA","plants; rate 500, evaluated after 15 d",10
same,"damage to plant (100=total damage to plant; 0=no damage to plant), IPOHE","plants; rate 130, evaluated after 15 d",0
same,"damage to plant (100=total damage to plant; 0=no damage to plant), IPOHE","plants; rate 250, evaluated after 15 d",0
same,"damage to plant (100=total damage to plant; 0=no damage to plant), IPOHE","plants; rate 500, evaluated after 15 d",10
same,"damage to plant (100=total damage to plant; 0=no damage to plant), ORYSA","plants; rate 130, evaluated after 15 d",0
same,"damage to plant (100=total damage to plant; 0=no damage to plant), ORYSA","plants; rate 250, evaluated after 15 d",0
same,"damage to plant (100=total damage to plant; 0=no damage to plant), ORYSA","plants; rate 500, evaluated after 15 d",10
same,"damage to plant (100=total damage to plant; 0=no damage to plant), PANMI","plants; rate 130, evaluated after 15 d",0
same,"damage to plant (100=total damage to plant; 0=no damage to plant), PANMI","plants; rate 250, evaluated after 15 d",0
same,"damage to plant (100=total damage to plant; 0=no damage to plant), PANMI","plants; rate 500, evaluated after 15 d",0
same,"damage to plant (100=total damage to plant; 0=no damage to plant), SETFA","plants; rate 130, evaluated after 15 d",60
same,"damage to plant (100=total damage to plant; 0=no damage to plant), SETFA","plants; rate 250, evaluated after 15 d",70
same,"damage to plant (100=total damage to plant; 0=no damage to plant), SETFA","plants; rate 500, evaluated after 15 d",70
same,"damage to plant (100=total damage to plant; 0=no damage to plant), SORVU","plants; rate 130, evaluated after 15 d",0
same,"damage to plant (100=total damage to plant; 0=no damage to plant), SORVU","plants; rate 250, evaluated after 15 d",0
same,"damage to plant (100=total damage to plant; 0=no damage to plant), SORVU","plants; rate 500, evaluated after 15 d",0
same,damage to plant (100=total damage; 0=no damage) ABUTH,[1]; Post-Emergence at 15.625 g/ha,0
same,damage to plant (100=total damage; 0=no damage) ABUTH,[1]; Post-Emergence at 62.5 g/ha,0
same,damage to plant (100=total damage; 0=no damage) ABUTH,[1]; Post-Emergence at 250 g/ha,0
